In brackets after ≈: the same amount, converted by molar mass. Several values for one entry are separate records, joined by “and”; a condition that tells them apart may be missing. Equal entries are not always repeated. Where two headings read alike, the source gives them in different places.
What was measured:
[1] = biological target: T1, α-glucosidase from Saccharomyces cerevisiae (Saccharomyces cerevisiae, UniProt P53341); test: α-glucosidase inhibitory assay (p-NPG, 96-well microplate); format: biochemical; conditions: pure compound at 500 µg/mL, triplicate
T1 construct: purchased Sigma-Aldrich (Germany)
T1 sequence (P53341 whole entry): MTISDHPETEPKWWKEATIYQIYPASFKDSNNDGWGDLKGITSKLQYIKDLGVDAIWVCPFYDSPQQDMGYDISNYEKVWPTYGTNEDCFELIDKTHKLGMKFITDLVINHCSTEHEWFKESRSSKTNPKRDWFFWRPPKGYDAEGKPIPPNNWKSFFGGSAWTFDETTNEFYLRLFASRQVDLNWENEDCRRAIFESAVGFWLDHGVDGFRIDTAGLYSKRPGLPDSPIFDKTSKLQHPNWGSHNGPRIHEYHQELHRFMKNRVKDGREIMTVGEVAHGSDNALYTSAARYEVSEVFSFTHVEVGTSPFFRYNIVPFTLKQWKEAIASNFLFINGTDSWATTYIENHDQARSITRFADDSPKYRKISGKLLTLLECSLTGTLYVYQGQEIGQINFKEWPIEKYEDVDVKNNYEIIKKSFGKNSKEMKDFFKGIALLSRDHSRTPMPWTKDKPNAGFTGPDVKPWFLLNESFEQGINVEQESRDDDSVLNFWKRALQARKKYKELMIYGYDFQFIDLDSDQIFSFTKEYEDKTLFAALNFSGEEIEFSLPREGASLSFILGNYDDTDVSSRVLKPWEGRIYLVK
Protocol: Spectrophotometric measurements were conducted using a Multiskan GO Spectrophotometer (Thermo-Fisher Scientific). The %Inhibition was calculated from the formula % inhibition=(AControl− ASample/AControl )×100
The α-glucosidase inhibitory activity was conducted in a 96-well microplate using 4-nitrophenyl-α-D-glucopyranoside (p-NPG), as reported previously. […] […] The microplate with samples and enzyme solution was initially incubated for 5 min at 37 °C. […] The reaction was allowed to run for 10 min and afterward stopped by adding 50 µL of 0.1 M Na2CO3. The absorbance was measured at 405 nm. All of the samples were tested in triplicate.
(§1) The readings were reduced by absorbance of the sample blanks measured separately for each extract/polyphenol, which consisted of 50 µL of extract diluted in 150 µL of buffer solution only, while values obtained for uninhibited controls were reduced by absorbance values of the buffer solution (buffer blank). The activity was expressed as %inhibition. The half-maximal inhibitory concentration (IC50) values, defined as concentration of inhibitor necessary to reduce the rate of an enzymatic process by 50%, were calculated as follows: IC50=sample concentration ×50/% inhibition

[2] = biological target: T1, α-glucosidase from Saccharomyces cerevisiae; test: Kinetics of α-glucosidase inhibition (Lineweaver–Burk, varying inhibitor and p-NPG concentrations); format: biochemical; conditions: for Inhibition Type (mode of α-glucosidase inhibition): Lineweaver–Burk plots, p-NPG 1–20 mM, enzyme 0.25 U/mL
Protocol: as §1, with “×50/% inhibition […]” for “×50/% inhibition”
Inhibition modes of α-glucosidase were determined according to Chu et al.. […] After 5 min of preincubation, the addition of the substrate started the reaction, and the changes in absorbance were measured at 30 s intervals. The uninhibited reaction was also run. The reaction was terminated after 10 min, and the absorbance values obtained in the kinetic study were used to create Lineweaver–Burk plots of 1/v against 1/[S].
S3. Ability of α‐glucosidase inhibition by C. incanus
Figure S1. Inhibition of α‐glucosidase by C. incanus extracts at different concentrations.
The absorbance values have been used to determine the changes in Michaelis con‐ stant (Km) and maximum velocity of reaction (Vmax). At first, the change in absorbance over time was converted to absorbance units per minute and then expressed as micromoles of chromogenic product (p‐Np) liberated in the enzymatic reaction in order to determine reaction velocity. The molar extinction coefficient of p‐NP used in the calculation was de‐ termined from its standard curve. The reciprocal of reaction velocity values of each tested compound and extract at different substrate concentrations were then plotted against the reciprocal of substrate concentrations. The intercepts of the created trendlines were uti‐ lized to calculate Km and Vmax values of each enzymatic reaction, and evaluation of altera‐

[3] = set-up: method as in PMID 35458630, PMID 36673365; conditions: after consumption of ellagitannin-rich foods; cited from earlier work
[4] = read-out: IC50 [µM] α-glucosidase
[5] = read-out: IC50 [µg/mL] α-glucosidase (converted)

| Compound | inhibition at 500 µg/mL [1] [%] | α-glucosidase %inhibition [1] [%] | Inhibition Type (mode of α-glucosidase inhibition) [2] | IC50 [2, 4] | IC50 [2, 5] | IC50 [µg/mL] α-glucosidase [2] [µg/mL] | IC50 ([2]; listed as cistusin, read-out: IC50 [µM] α-glucosidase) [µM] | absorption into the bloodstream [3] |
| --- | --- | --- | --- | --- | --- | --- | --- | --- |
| O=C(O)c1cc(O)c(O)c(O)c1 [Gallic acid, gallic acid] | > 70 | 82.8 | mixed | 686 µM | 688 µM and 686 µM |  |  |  |
| Cistusin |  | > 70 | mixed | 0.66 µM |  | 0.83 | 0.7 |  |
| O=C1O[C@H]2[C@@H]3OC(=O)c4cc(O)c(O)c(O)c4-c4c(O)c(O)c5oc(=O)c6c(c(O)c(O)c7oc(=O)c4c5c76)-c4c(cc(O)c(O)c4O)C(=O)OC[C@H]3OC(O)[C@@H]2OC(=O)c2cc(O)c(O)c(O)c2-c2c1cc(O)c(O)c2O (mixture of isomers) [Punicalagin, punicalagin] | > 70 |  | competitive | 1.1 µM and 1.14 µM | 1.13 µM |  |  | not absorbed into the bloodstream |
| O=C1OC[C@H]2OC(O)[C@H](O)[C@@H](O)[C@@H]2OC(=O)c2cc(O)c(O)c(O)c2-c2c(O)c(O)c3oc(=O)c4c(c(O)c(O)c5oc(=O)c2c3c54)-c2c1cc(O)c(O)c2O (mixture of isomers) [punicalin] |  |  |  |  |  |  |  | not absorbed into the bloodstream |
| O=C(/C=C/c1ccc(O)cc1)OC[C@H]1O[C@@H](Oc2c(-c3ccc(O)cc3)oc3cc(O)cc(O)c3c2=O)[C@H](O)[C@@H](O)[C@@H]1O [Tiliroside, kaempferol-3-O-β-(6″-O-p-coumaroyl)glucoside] | > 70 | 73.6 | mixed | 283 µM | 283 µM |  |  |  |
| O=c1c(O)c(-c2ccc(O)cc2)oc2cc(O)cc(O)c12 [kaempferol] | 17.6 |  |  |  |  |  |  |  |
| O=C(OC[C@H]1OC(O)[C@@H]2OC(=O)c3cc(O)c(O)c(O)c3-c3c(cc(O)c(O)c3O)C(=O)O[C@H]2[C@@H]1OC(=O)c1cc(O)c(O)c(O)c1-c1c(O)c(O)c2oc(=O)c3cc(O)c(O)c4oc(=O)c1c2c43)c1cc(O)c(O)c(O)c1 (some centres unmarked) [Terflavin A, terflavin A] |  | > 70 | mixed | 1.1 µM |  | 1.19 (≈ 1.1 µM) |  |  |
| C[C@H]1O[C@H](O[C@H]2[C@H](O)[C@@H](O)[C@@H](O[C@H]3[C@H](O)[C@@H](O)C(O)O[C@@H]3CO)O[C@@H]2CO)[C@H](O)[C@@H](O)[C@@H]1N[C@H]1C=C(CO)[C@@H](O)[C@H](O)[C@H]1O (some centres unmarked) [Acarbose, acarbose, reference compound] | 13.7 |  | competitive |  |  |  |  |  |
| O=c1oc2c(O)c(O)cc3c(=O)oc4c(O)c(O)cc1c4c23 [Ellagic acid, ellagic acid] | > 70 | 81.9 | mixed | 11 µM and 10.8 µM | 10.8 µM |  |  |  |
| O=c1c(O)c(-c2ccc(O)c(O)c2)oc2cc(O)cc(O)c12 [quercetin] | 30 to 40 |  |  |  |  |  |  |  |
| O=c1c(O[C@@H]2O[C@H](CO)[C@H](O)[C@H](O)[C@H]2O)c(-c2ccc(O)c(O)c2)oc2cc(O)cc(O)c12 [hyperoside, quercetin-3-O-β-galactoside] | 26 |  |  |  |  |  |  |  |
